# Assay: physchem
row,pKa,SMILES
1,8.54,CCCN(CCO)CC(O)CO (stereo not shown) [HEPAPD]
2,8.54,CCN(CCO)CC(O)CO (stereo not shown) [HEEAPD]
3,8.53,"CC(CO)N(C)CC(O)CO (stereo not shown) [HMEMAPD, 3-[(2-hydroxy-1-methylethyl)methylamino]-1,2-propanediol]"
4,8.54,CCCCN(CCO)CC(O)CO (stereo not shown) [HEBAPD]
5,8.45,CN(CCO)CC(O)CO (stereo not shown) [HEMAPD]
6,8.62,"CCN(CC(O)CO)C(C)CO (stereo not shown) [EHMEAPD, 3-[ethyl(2-hydroxy-1-methylethyl)amino]-1,2-propanediol]"
7,8.53,"CCC(CO)N(C)CC(O)CO (stereo not shown) [HMPMAPD, 3-[[1-(hydroxymethyl)propyl]methylamino]-1,2-propanediol]"

# From patent US20240367095A1, “TERTIARY ALKANOLAMINE FOR GAS TREATING” (Dow Global Technologies LLC, priority 2021, published 2024)
